{
  "source": "patent US6391576B1",
  "about": "“Method for isolating a microbe” (Japan Bioindustry Association, priority 1999, dated 2002)",
  "tested_on": "microorganisms in the activated sludge",
  "test": "Colony formation on NUTRIENT BROTH agar plates inoculated with activated sludge cell dispersion",
  "format": "cell-based",
  "conditions": "30° C.; for Growth of the microorganisms in the activated sludge (in words): 0.1 w/w % on plate",
  "method": "Ten ml of activated sludge obtained from a food manufacturer's factory were filtered through gauze. The filtered activated sludge was stirred, subjected to ultra-sonics, added with a saline solution, and further stirred to allow cells to disperse well in the filtered activated sludge. The cell dispersion was diluted with a saline solution to 3×10^4 cells/ml as determined by staining with 6-carboxy-fluorescein diacetate (J. Porter et al. J. Appl. Bacteriol., Vol. 79, 399-408 (1995)).\nThe medium used was NUTRIENT BROTH (DIFICO), an 1:3 mixture of Bact Beef® and Bact Peptone®) added with 0.2% glucose and 2% agar. The medium was heat-sterilized and allowed to coagulate in plates. The plates were added with 0.1 w/w % of the compound shown in Table 3 and inoculated with 0.1 ml of the cell dispersion solution, and incubated at 30° C. After 2 or 10 days incubation, the number of colonies formed on the plates was counted.",
  "key": {"[1]": {"conditions": "0.1 w/w % polysaccharide on plate"}, "[2]": {"conditions": "0.1 w/w % cyclodextrin compound on plate, 0.1 ml cell dispersion"}},
  "data": [
    {"molecule": "Glucomannan", "values": [
      {"measurement": "Colony/plate formed after incubation of 2 days", "setting": "[1]", "value": 190, "unit": "Colony/plate"},
      {"measurement": "Colony/plate formed after incubation of 10 days", "setting": "[1]", "value": 650, "unit": "Colony/plate"}
    ]},
    {"molecule": "Pullulan", "values": [
      {"measurement": "Colony/plate formed after incubation of 2 days", "setting": "[1]", "value": 180, "unit": "Colony/plate"},
      {"measurement": "Colony/plate formed after incubation of 10 days", "setting": "[1]", "value": 600, "unit": "Colony/plate"}
    ]},
    {"molecule": "OC[C@H]1O[C@@H]2O[C@H]3[C@H](O)[C@@H](O)[C@@H](O[C@H]4[C@H](O)[C@@H](O)[C@@H](O[C@H]5[C@H](O)[C@@H](O)[C@@H](O[C@H]6[C@H](O)[C@@H](O)[C@@H](O[C@H]7[C@H](O)[C@@H](O)[C@@H](O[C@H]1[C@H](O)[C@H]2O)O[C@@H]7CO)O[C@@H]6CO)O[C@@H]5CO)O[C@@H]4CO)O[C@@H]3CO", "note": "[α-Cyclodextrin]", "values": [
      {"measurement": "Colony/plate formed after incubation of 2 days", "setting": "[2]", "value": 120, "unit": "Colony/plate"},
      {"measurement": "Colony/plate formed after incubation of 10 days", "setting": "[2]", "value": 320, "unit": "Colony/plate"}
    ]},
    {"molecule": "Curdlan", "values": [
      {"measurement": "Colony/plate formed after incubation of 2 days", "setting": "[1]", "value": 220, "unit": "Colony/plate"},
      {"measurement": "Colony/plate formed after incubation of 10 days", "setting": "[1]", "value": 745, "unit": "Colony/plate"}
    ]},
    {"molecule": "OC[C@H]1O[C@@H]2O[C@H]3[C@H](O)[C@@H](O)[C@@H](O[C@H]4[C@H](O)[C@@H](O)[C@@H](O[C@H]5[C@H](O)[C@@H](O)[C@@H](O[C@H]6[C@H](O)[C@@H](O)[C@@H](O[C@H]7[C@H](O)[C@@H](O)[C@@H](O[C@H]8[C@H](O)[C@@H](O)[C@@H](O[C@H]1[C@H](O)[C@H]2O)O[C@@H]8CO)O[C@@H]7CO)O[C@@H]6CO)O[C@@H]5CO)O[C@@H]4CO)O[C@@H]3CO", "note": "[β-Cyclodextrin]", "values": [
      {"measurement": "Colony/plate formed after incubation of 2 days", "setting": "[2]", "value": 105, "unit": "Colony/plate"},
      {"measurement": "Colony/plate formed after incubation of 10 days", "setting": "[2]", "value": 350, "unit": "Colony/plate"}
    ]},
    {"molecule": "2-Hydroxypropyl-β-cyclodextrin", "values": [
      {"measurement": "Colony/plate formed after incubation of 2 days", "setting": "[2]", "value": 270, "unit": "Colony/plate"},
      {"measurement": "Colony/plate formed after incubation of 10 days", "setting": "[2]", "value": 710, "unit": "Colony/plate"},
      {"measurement": "Growth of the microorganisms in the activated sludge (in words)", "value": "promoted the growth"}
    ]},
    {"molecule": "Dextran", "values": [
      {"measurement": "Colony/plate formed after incubation of 2 days", "setting": "[1]", "value": 146, "unit": "Colony/plate"},
      {"measurement": "Colony/plate formed after incubation of 10 days", "setting": "[1]", "value": 350, "unit": "Colony/plate"}
    ]},
    {"molecule": "OC[C@H]1O[C@@H]2O[C@H]3[C@H](O)[C@@H](O)[C@@H](O[C@H]4[C@H](O)[C@@H](O)[C@@H](O[C@H]5[C@H](O)[C@@H](O)[C@@H](O[C@H]6[C@H](O)[C@@H](O)[C@@H](O[C@H]7[C@H](O)[C@@H](O)[C@@H](O[C@H]8[C@H](O)[C@@H](O)[C@@H](O[C@H]9[C@H](O)[C@@H](O)[C@@H](O[C@H]1[C@H](O)[C@H]2O)O[C@@H]9CO)O[C@@H]8CO)O[C@@H]7CO)O[C@@H]6CO)O[C@@H]5CO)O[C@@H]4CO)O[C@@H]3CO", "note": "[γ-Cyclodextrin]", "values": [
      {"measurement": "Colony/plate formed after incubation of 2 days", "setting": "[2]", "value": 210, "unit": "Colony/plate"},
      {"measurement": "Colony/plate formed after incubation of 10 days", "setting": "[2]", "value": 640, "unit": "Colony/plate"},
      {"measurement": "Growth of the microorganisms in the activated sludge (in words)", "value": "promoted the growth"}
    ]},
    {"molecule": "COC[C@H]1O[C@@H]2O[C@H]3[C@H](O)[C@@H](OC)[C@@H](O[C@H]4[C@H](O)[C@@H](OC)[C@@H](O[C@H]5[C@H](O)[C@@H](OC)[C@@H](O[C@H]6[C@H](O)[C@@H](OC)[C@@H](O[C@H]7[C@H](O)[C@@H](OC)[C@@H](O[C@H]8[C@H](O)[C@@H](OC)[C@@H](O[C@H]1[C@H](O)[C@H]2OC)O[C@@H]8COC)O[C@@H]7COC)O[C@@H]6COC)O[C@@H]5COC)O[C@@H]4COC)O[C@@H]3COC", "note": "[2,6-Di-O-methyl-β-cyclodextrin]", "values": [
      {"measurement": "Colony/plate formed after incubation of 2 days", "setting": "[2]", "value": 520, "unit": "Colony/plate"},
      {"measurement": "Colony/plate formed after incubation of 10 days", "setting": "[2]", "value": "1,060 Colony/plate"},
      {"measurement": "Growth of the microorganisms in the activated sludge (in words)", "value": "promoted the growth"}
    ]},
    {"molecule": "Cellulose", "values": [
      {"measurement": "Colony/plate formed after incubation of 2 days", "setting": "[1]", "value": 244, "unit": "Colony/plate"},
      {"measurement": "Colony/plate formed after incubation of 10 days", "setting": "[1]", "value": 685, "unit": "Colony/plate"}
    ]},
    {"molecule": "Glycogen", "values": [
      {"measurement": "Colony/plate formed after incubation of 2 days", "setting": "[1]", "value": 210, "unit": "Colony/plate"},
      {"measurement": "Colony/plate formed after incubation of 10 days", "setting": "[1]", "value": 830, "unit": "Colony/plate"}
    ]},
    {"molecule": "COC[C@H]1O[C@@H]2O[C@H]3[C@H](OC)[C@@H](OC)[C@@H](O[C@H]4[C@H](OC)[C@@H](OC)[C@@H](O[C@H]5[C@H](OC)[C@@H](OC)[C@@H](O[C@H]6[C@H](OC)[C@@H](OC)[C@@H](O[C@H]7[C@H](OC)[C@@H](OC)[C@@H](O[C@H]8[C@H](OC)[C@@H](OC)[C@@H](O[C@H]1[C@H](OC)[C@H]2OC)O[C@@H]8COC)O[C@@H]7COC)O[C@@H]6COC)O[C@@H]5COC)O[C@@H]4COC)O[C@@H]3COC", "note": "[2,3,6-Tri-O-methyl-β-cyclodextrin]", "values": [
      {"measurement": "Colony/plate formed after incubation of 2 days", "setting": "[2]", "value": 220, "unit": "Colony/plate"},
      {"measurement": "Colony/plate formed after incubation of 10 days", "setting": "[2]", "value": 650, "unit": "Colony/plate"},
      {"measurement": "Growth of the microorganisms in the activated sludge (in words)", "value": "promoted the growth"}
    ]}
  ]
}
